The structures appear in SMILES notation. A value given as a limit tells only on which side of the number the result lay.

Series [1] is described as follows: Cytotoxicity against human GES-1 cells assessed as reduction in cell viability after 24 hrs by MTT assay. The series is classed as cell-based, GES1. As to conditions: GES-1 cells.
Another series has as its system OVCAR-3. The series can be described thus: cells. Conditions: Homo sapiens, OVCAR-3, 24 h.
The next series relates to SGC-7901. The series can be described thus: cells. As to conditions: Homo sapiens, SGC-7901, 24 h.
The nature of series [2]: Cytotoxicity against human HPAEpic cells assessed as reduction in cell viability after 24 hrs by MTT assay. Conditions: HPAEpic cells. It is filed as cell-based.
In a further series the test system is A549. The series can be described thus: cells. Conditions: Homo sapiens, A549, 24 h.
A short description of series [3]: Cytotoxicity against human L02 cells assessed as reduction in cell viability after 24 hrs by MTT assay. It is filed as cell-based. As to conditions: L02 cells.
In a further series the test system is HepG2. The series can be described thus: cells. As to conditions: Homo sapiens, HepG2, 24 h.
Series [4] is described as follows: Cytotoxicity against human IOSE-80 cells assessed as reduction in cell viability after 24 hrs by MTT assay. It is filed as cell-based. Conditions: IOSE-80 cells.

Description for A549: Antiproliferative activity against human A549 cells assessed as reduction in cell viability after 24 hrs by MTT assay
Description for HepG2: Antiproliferative activity against human HepG2 cells assessed as reduction in cell viability after 24 hrs by MTT assay
Description for OVCAR-3: Antiproliferative activity against human OVCAR3 cells assessed as reduction in cell viability after 24 hrs by MTT assay
Description for SGC-7901: Antiproliferative activity against human SGC7901 cells assessed as reduction in cell viability after 24 hrs by MTT assay

As for `O=c1[nH]cc(S(=O)(=O)Nc2ccc(-c3cn(-c4cccc(Cl)c4)nn3)cc2)c(=O)[nH]1`, the CC50 at 24 h in series [1] was 7.57 µM; in series [2], 13.8 µM; in series [3], 19 µM; in series [4] it was 14.3 µM. In addition, the IC50 in the series with OVCAR-3 worked out at 2.75 µM; with SGC-7901 it was 2.46 µM; in the series on A549, 2.31 µM; in the series with HepG2 it was 2.02 µM.

Regarding `O=c1[nH]cc(S(=O)(=O)Nc2cccc(-c3cn(-c4ccc(Cl)cc4)nn3)c2)c(=O)[nH]1`, the CC50 at 24 h in series [1] worked out at 11.3 µM; in series [2] it was 14 µM; in series [3], 9.86 µM; in series [4], 6.26 µM. The IC50 in the series with OVCAR-3 was 2.04 µM; in the series on SGC-7901 it was 2.16 µM; in the series on A549 it was 1.73 µM; in the series with HepG2, 1.96 µM.

Consider `O=c1[nH]cc(S(=O)(=O)Nc2ccccc2-c2cn(-c3ccccc3)nn2)c(=O)[nH]1`, for which the 50% cytotoxic concentration (CC50) at 24 h was over 100 µM in series [1], 14.3 µM in series [2], 10.6 µM in series [3] and 10.5 µM in series [4]. The IC50 is 6.65 µM with OVCAR-3, 11.8 µM in the series on SGC-7901, 6.79 µM in the series on A549 and 6.16 µM with HepG2.

With `Cc1cccc(-n2cc(-c3ccccc3NS(=O)(=O)c3c[nH]c(=O)[nH]c3=O)nn2)c1`, the CC50 at 24 h in series [1] stood at 23.7 µM; in series [2] it was 12.3 µM; in series [3], 21.9 µM; in series [4] it was 15.8 µM. Besides, the IC50 with OVCAR-3 was determined as 3.15 µM; in the series on SGC-7901, 3.51 µM; with A549, 1.87 µM; with HepG2, 3.62 µM.

`Cc1ccccc1-n1cc(-c2ccccc2NS(=O)(=O)c2c[nH]c(=O)[nH]c2=O)nn1`: the CC50 at 24 h in series [1] stood at 19.9 µM; in series [2], 9.67 µM; in series [3], 56.6 µM; in series [4], 17.4 µM. Also, the IC50 in the series with OVCAR-3 was 6.55 µM; in the series on SGC-7901 it was 9.57 µM; in the series on A549 it was 3.21 µM; in the series with HepG2 it was 13.9 µM.

For the molecule `O=c1[nH]cc(S(=O)(=O)Nc2ccccc2-c2cn(-c3ccccc3F)nn2)c(=O)[nH]1`, the CC50 at 24 h in series [1], in series [2], in series [3] and in series [4] was over 100 µM throughout. Also, the IC50 with OVCAR-3 is 15.3 µM; with SGC-7901 it was 10.8 µM; in the series on A549, 7.37 µM; in the series with HepG2 it was 12.5 µM.

Turning to `Cc1ccc(-n2cc(-c3ccccc3NS(=O)(=O)c3c[nH]c(=O)[nH]c3=O)nn2)cc1`, the CC50 at 24 h in series [1] was 32.4 µM; in series [2], 7.03 µM; in series [3] it was over 100 µM; in series [4] it was 33.4 µM. Further, the IC50 is 2.19 µM with OVCAR-3, 6.39 µM in the series with SGC-7901, 2.91 µM in the series with A549 and 8.35 µM in the series on HepG2.

Take `O=c1[nH]cc(S(=O)(=O)Nc2ccc(-c3cn(-c4ccccc4Cl)nn3)cc2)c(=O)[nH]1`: the CC50 at 24 h in series [1] came out at 16.4 µM; in series [2], 17 µM; in series [3], 19.3 µM; in series [4], 22.2 µM. Moreover, the IC50 in the series on OVCAR-3 stood at 4.27 µM; in the series with SGC-7901 it was 2.68 µM; in the series on A549 it was 2.81 µM; with HepG2, 2.23 µM.

On to `O=c1[nH]cc(S(=O)(=O)Nc2cccc(-c3cn(-c4ccccc4Cl)nn3)c2)c(=O)[nH]1`, for which the CC50 at 24 h in series [1] came to 14 µM; in series [2], 12.3 µM; in series [3], 11.5 µM; in series [4], 17.9 µM. Also, the IC50 in the series on OVCAR-3 was found to be 5.37 µM; with SGC-7901, 3.01 µM; in the series with A549, 2.73 µM; in the series on HepG2, 4.03 µM.

Turning to `O=c1[nH]cc(S(=O)(=O)Nc2ccc(-c3cn(-c4ccc(Cl)cc4)nn3)cc2)c(=O)[nH]1`, the CC50 at 24 h in series [1] amounted to 23.3 µM; in series [2], 14.8 µM; in series [3] it was 42.9 µM; in series [4], 17.7 µM. Besides, the IC50 was found to be 2.16 µM in the series with OVCAR-3, 1.83 µM with SGC-7901, 1.21 µM in the series on A549 and 1.98 µM with HepG2.

The record behind these values is ChEMBL document CHEMBL4346687, “Design, synthesis and biological evaluation of novel uracil derivatives bearing 1, 2, 3-triazole moiety as thymidylate synthase (TS) inhibitors and as potential antitumor drugs” (Eur J Med Chem, 2019).
